Measurements taken from patent publication US12042547B2, “Method for producing luminescent particles, luminescent particles, and bioimaging material” (KYULUX, INC., priority 2018, dated 2024).

Experiment: Evaluation of luminescence properties (emission maximum, PL quantum yield, emission lifetime)
Assay type: physicochemical
Conditions: toluene solution 1.0×10^−5 mol/L, 340-nm excitation
Experimental: The following examples illustrate the present invention in greater detail. It is to be understood that changes may be made to the below-described materials, processing manner, processing procedure, etc. without departing from the scope of the present invention. Thus, the present invention should not be construed as limited to the following examples. An evaluation of luminescence properties was performed by using an optical spectroscope (PMA-12, manufactured by Hamamatsu Photonics K.K.), and an observation of the shape of particles was performed by using a scanning electron microscope (Inspect S, manufactured by FEI). The average diameter and the polydispersion index of luminescent particles were determined by cumulant analysis using a dynamic light scattering measurement device (DLS-8000DL, manufactured by Otsuka Electronics Co., Ltd.).
The example particles 1, the example particles 2 and the comparative particles 1 were separately dispersed in water to prepare three aqueous dispersions (0.05 μg/L). For each of the aqueous dispersions and a toluene solution of 4CzIPN (1.0×10^−5 mol/L), the emission maximum wavelength, the PL quantum yield (photoluminescence quantum yield) and the emission lifetime τ1, τ2 were measured using 340-nm excitation light.
The resulting luminescent particles contained particles having a maximum diameter of less than 1000 nm. The resulting luminescent particles were dispersed in water to prepare an aqueous dispersion (0.05 μg/L). The aqueous dispersion was subjected to measurement of the emission spectrum with 340-nm excitation light. […] The full width at half maximum (FWHM) was as narrow as 29 nm.

Emission lifetime τ1 (after nitrogen bubbling): 16 ns
Emission lifetime τ2 (after nitrogen bubbling): 4.71 μs
Emission maximum wavelength (after nitrogen bubbling): 505 nm
PL quantum Yield (after nitrogen bubbling): 83%
Emission lifetime τ1 (before nitrogen bubbling): 11 ns
Emission lifetime τ2 (before nitrogen bubbling): 0.31 μs
Emission maximum wavelength (before nitrogen bubbling): 505 nm
PL quantum Yield (before nitrogen bubbling): 21%
Compound: N#Cc1c(-n2c3ccccc3c3ccccc32)c(C#N)c(-n2c3ccccc3c3ccccc32)c(-n2c3ccccc3c3ccccc32)c1-n1c2ccccc2c2ccccc21 [4CzIPN]
